This is an account of results in patent US12016843B2, “Compositions and methods for the treatment of amyotrophic lateral sclerosis, parkinson's disease, parkinson's disease with dementia, dementia with lewy bodies, and multiple system atrophy” (priority 2019, dated 2024).

In test [1] the test system is SOD1 G93A high copy transgenic mice. The experiment in a line: Lifespan (survival to humane end of life) in SOD1 G93A mouse model of ALS. The class given is in vivo. As to conditions: vs vehicle control. The method, then:
Study Design. Three experimental groups of n=20 (10 male, 10 female) SOD1 G93A high copy transgenic mice were dosed daily via intraperitoneal administration of vehicle control; (R)-2-amino-N—((S)-1-(((S)-5-amino-1-(3-benzyl-1,2,4-oxadiazol-5-yl)pentyl)amino)-3-(4-hydroxy-2,6-dimethylphenyl)-1-oxopropan-2-yl)-5-guanidinopentanamide (as its tris-HCl salt-(Ia)) at 0.5 mg/kg; or (R)-2-amino-N—((S)-1-(((S)-5-amino-1-(3-benzyl-1,2,4-oxadiazol-5-yl)pentyl)amino)-3-(4-hydroxy-2,6-dimethylphenyl)-1-oxopropan-2-yl)-5-guanidinopentanamide (as its tris-HCl salt—(Ia)) at 5.0 mg/kg. Animals were dosed beginning at 8 weeks of age and dosing was continued until humane end of life (defined by the inability of animal to right itself from either side within 30 seconds when placed on its side). Experimental endpoints and in-life collections and observations were as follows: • 1. Bodyweight measurement. Daily recording of weight. • 2. Neurological scoring. Weekly NeuroScore, a qualitative assessment of neurological disease progression based upon a five-point grading system. […] The average force in grams of the 3 forepaw and 3 all-paws trials are analyzed with and without normalization to body weight. • 4. […]

Test [2] has the same test system. Nature of the test: Plasma neurofilament light chain (NfL) levels in SOD1 G93A mouse model of ALS. The class given is in vivo. The following applies: for plasma NfL levels Mean Diff. (Dunnett's multiple comparisons test, Vehicle vs. 0.5 mg/kg): 0.5 mg/kg daily ip; for plasma NfL levels Mean Diff. (Dunnett's multiple comparisons test, Vehicle vs. 0.5 mg/kg) / plasma NfL levels Mean Diff. (Dunnett's multiple comparisons test, Vehicle vs. 5.0 mg/kg): 10 weeks; for plasma NfL levels Mean Diff. (Dunnett's multiple comparisons test, Vehicle vs. 5.0 mg/kg): 5.0 mg/kg daily ip. The method, then:
Study Design. Three experimental groups of n=20 (10 male, 10 female) SOD1 G93A high copy transgenic mice were dosed daily via intraperitoneal administration of vehicle control; (R)-2-amino-N—((S)-1-(((S)-5-amino-1-(3-benzyl-1,2,4-oxadiazol-5-yl)pentyl)amino)-3-(4-hydroxy-2,6-dimethylphenyl)-1-oxopropan-2-yl)-5-guanidinopentanamide (as its tris-HCl salt-(Ia)) at 0.5 mg/kg; or (R)-2-amino-N—((S)-1-(((S)-5-amino-1-(3-benzyl-1,2,4-oxadiazol-5-yl)pentyl)amino)-3-(4-hydroxy-2,6-dimethylphenyl)-1-oxopropan-2-yl)-5-guanidinopentanamide (as its tris-HCl salt—(Ia)) at 5.0 mg/kg. Animals were dosed beginning at 8 weeks of age and dosing was continued until humane end of life (defined by the inability of animal to right itself from either side within 30 seconds when placed on its side). Experimental endpoints and in-life collections and observations were as follows: • 1. Bodyweight measurement. Daily recording of weight. • 2. Neurological scoring. Weekly NeuroScore, a qualitative assessment of neurological disease progression based upon a five-point grading system. Scoring is defined as follows: • Score 0: Full extension of hind legs away from the lateral midline when the mouse is suspended by its tail, and the mouse can hold this extension for 2 seconds, being suspended 3 times consecutively. • Score 1: Collapse or partial collapse of the leg extension toward the lateral midline or trembling of hind legs during the tail suspension. • Score 2: Toes curl under at least twice during walking of 12 inches, or any part of the foot is dragging along the cage bottom or table. • Score 3: Rigid paralysis or minimal joint movement, the foot is not being used for forward motion. • Score 4: The mouse cannot right itself within 30 sec from either side. • 3. Grip strength test. Weekly forelimb grip strength, performed as follows: • a. Subjects are weighed and acclimated to the testing room for at least 60 min. • b. Equipment: Bioseb grip strength meter equipped with a grid for grasping that is suited for mice. • c. Mice are lowered towards the grid by their tails to allow for visual placing and for the mouse to grip the grid with their forepaws. • d. Subjects are firmly pulled horizontally away from the grid (parallel to the bench) for 3 consecutive trials with a brief (approximately 30 sec) rest period on the bench between trials. • e. The average force in grams of the 3 forepaw and 3 all-paws trials are analyzed with and without normalization to body weight. • 4. Retro-orbital blood collection. Bi-weekly retroorbital eye bleeds to determine drug exposure levels as well as levels of neurofilament light chain, a biomarker of axonal damage shown to correlate with ALS disease progression in human patients. Briefly, mice are sedated with isoflurane (5% induction, 2% maintenance) in O2. When they reach the plane of anesthesia, mice are withdrawn from isoflurane and blood is collected with a 25 μL glass capillary tube from the retro-orbital sinus, alternating sides for successive bleeds. 200 μL of whole blood is collected in a BD K2EDTA Microtainer collection tube containing 3.5 μL of 25X HALT protease inhibitor cocktail and kept on ice for processing. Mice are allowed to recover from the anesthesia, then returned to their home cage. Results […]

`Cc1cc(O)cc(C)c1C[C@H](NC(=O)[C@H](N)CCCNC(=N)N)C(=O)N[C@@H](CCCCN)c1nc(Cc2ccccc2)no1.Cl.Cl.Cl` [Compound Ia, (R)-2-amino-N—((S)-1-(((S)-5-amino-1-(3-benzyl-1,2,4-oxadiazol-5-yl)pentyl)amino)-3-(4-hydroxy-2,6-dimethylphenyl)-1-oxopropan-2-yl)-5-guanidinopentanamide·3HCl]: the lifespan entry in test [1] (female SOD1 G93A mice, daily intraperitoneal) is “no effects”; in test [1] (male SOD1 G93A mice, 5.0 mg/kg daily intraperitoneal), “significantly increased”. Further, the “plasma NfL levels Mean Diff. (Dunnett's multiple comparisons test, Vehicle vs. 0.5 mg/kg)” value is given as −1075 in test [2] (female SOD1 G93A mice) and 897.8 in test [2] (male SOD1 G93A mice). The “plasma NfL levels Mean Diff. (Dunnett's multiple comparisons test, Vehicle vs. 5.0 mg/kg)” value is listed as 1291 in test [2] (female SOD1 G93A mice) and 3469 in test [2] (male SOD1 G93A mice). The “accumulation of NfL in plasma” value in test [2] (male SOD1 G93A mice, 5.0 mg/kg, 10 weeks of administration) is recorded as “statistically significant impact on the accumulation of NfL”.
